What all share (test): biochemical
One assay has as its target DRB5*0101 (Homo sapiens, UniProt P01903+Q30154). The settings on record: Binding affinity DRB5 *0101.
A further assay has as its target DRB1*1302 (Homo sapiens, UniProt P01903+P01911, A100E/A169T/K41T/L162R/M171V/P40S/Q125H/Q178H/Q39Y/Q99D/R42S/S66N/T262R/V115G/W38E/Y61H). Type of assay: binding.
The next assay concerns the target DR4w4 (DRB1*0401) (Homo sapiens, UniProt P01903+P01911, A100K/A169T/F76Y/I96L/K127E/L162R/M171V/N62H/P40V/Q125Y/R42H/S133A/S149N/S66Y/V115G/V209L/W38E). It counts as binding.
In another assay the target is DR1 (DRB1*0101) (Homo sapiens, UniProt P01903+P01911, A100R/D57E/F55L/F60I/F76Y/I96L/L162R/M171V/P40L/Q125E/R42F/V115G/Y59C). It counts as binding.
A further assay concerns the target DRB1*0802 (Homo sapiens, UniProt P01903+P01911, A100R/A103L/A169T/F76Y/H45Y/I96F/K41T/L162R/M171V/P40S/Q125H/Q178H/Q39Y/Q99D/R218S/R42G/S66Y/V115G/W38E). It counts as binding.
The next assay has as its target DR7 (DRB1*0701) (Homo sapiens, UniProt P01903+P01911, A100R/A102G/A103Q/D57E/D86V/E43K/F76Y/K127E/L162R/M171V/P40G/Q125H/Q99D/R33Q/R42Y/R54Q/S133A/S66F/T210M/V115G/Y107V/Y59L/Y89S). Type of assay: binding.
The next assay deals with DRB3*0101 (Homo sapiens, UniProt P01903+P79483). It counts as binding.
The next assay has as its target DRB4*0101 (Homo sapiens, UniProt P01903+P13762, G164S). It counts as binding.
A further assay addresses DRB1*0301 (Homo sapiens, UniProt P01903+P01911, A100K/A102G/A103R/A169T/F55Y/I96L/K41T/L162R/M171V/P40S/Q125H/Q178H/Q39Y/R42S/S66N/T106N/T262R/W38E/Y61H). Type of assay: binding.
The target of the next assay is DRB1*1501 (Homo sapiens, UniProt P01903+P01911). Type of assay: binding.
In a further assay the target is DRB1*0901 (Homo sapiens, UniProt P01903+P01911, A100R/A103E/D57H/D86V/F55Y/F60I/F76Y/I96F/K127E/L162R/M171V/P40D/Q125H/Q99R/R33Q/R42F/S133A/S66N/T210M/V115G/W38K/Y107V/Y59G/Y89S). It counts as binding.
The next assay deals with DRB1*1101 (Homo sapiens, UniProt P01903+P01911, A100R/A169T/A87E/I96F/K41T/L162R/M171V/P40S/Q125H/Q178H/Q39Y/Q99D/R42S/S66Y/T262R/V115G/W38E). The settings on record: Binding affinity DRB1 *1101.
Chain of DRB1*1101 (P01903 26-254 limits assumed, other chains not shown): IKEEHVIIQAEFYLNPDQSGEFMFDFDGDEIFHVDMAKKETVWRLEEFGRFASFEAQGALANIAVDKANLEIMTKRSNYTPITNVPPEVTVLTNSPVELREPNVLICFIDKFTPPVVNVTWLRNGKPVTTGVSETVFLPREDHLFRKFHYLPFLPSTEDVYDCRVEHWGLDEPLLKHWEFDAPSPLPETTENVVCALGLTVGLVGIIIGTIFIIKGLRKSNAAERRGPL
Another assay concerns the target DRB1*0405 (Homo sapiens, UniProt P01903+P01911, A100R/A169T/D86S/F76Y/I96L/K127E/L162R/M171V/N62H/P40V/Q125Y/R42H/S133A/S149N/S66Y/V115G/V209L/W38E). Type of assay: binding.

From patent publication US9340577B2, “HLA binding motifs and peptides and their uses” (priority 1992, dated 2016) come the findings set out here.

No end group written: not given here.

Chain of DRB1*0301 (P01903 26-254 limits assumed, other chains not shown): as above
Chain of DRB1*1302 (P01903 26-254 limits assumed, other chains not shown): as above

As to `CSCC[C@H](NC(=O)[C@H](CS)NC(=O)[C@H](CC(N)=O)NC(=O)[C@H](CC(=O)O)NC(=O)[C@H](CCCCN)NC(=O)[C@H](CC(N)=O)NC(=O)CN)C(=O)N[C@H](C(=O)N[C@@H](Cc1ccc(O)cc1)C(=O)N[C@H](C(=O)N[C@@H](C)C(=O)N[C@@H](Cc1c[nH]c2ccccc12)C(=O)N[C@@H](CC(=O)O)C(=O)N[C@@H](CO)C(=O)N[C@H](C(=O)O)C(C)C)C(C)C)[C@@H](C)O` [Peptide 1601.09], the IC50 (as a rule, the concentration that gives 50% inhibition) is greater than 20 µM on DRB5*0101; greater than 20000 nM against DRB1*1302; 2260 nM against DR4w4 (DRB1*0401); 2230 nM against DR1 (DRB1*0101); 11.5 µM against DRB1*0802; 4390 nM at DR7 (DRB1*0701). For the same compound, the IC50 at DRB3*0101 was greater than 20 µM; against DRB4*0101 it was 41 nM; against DRB1*0301, 8.83 µM; against DRB1*1501, 0.461 µM; against DRB1*0901 it was greater than 20000 nM; at DRB1*1101 it was greater than 20 µM.
For `CC(C)[C@H](NC(=O)[C@H](CCC(=O)O)NC(=O)[C@H](Cc1c[nH]c2ccccc12)NC(=O)[C@@H](NC(=O)CNC(=O)[C@@H](NC(=O)[C@H](CC(N)=O)NC(=O)CNC(=O)[C@H](Cc1ccc(O)cc1)NC(=O)[C@H](CCCCN)NC(=O)[C@@H](N)CCC(=O)O)[C@@H](C)O)[C@@H](C)O)C(=O)N[C@@H](Cc1c[nH]cn1)C(=O)N[C@@H](Cc1ccccc1)C(=O)NCC(=O)N[C@@H](CC(N)=O)C(=O)O` [Peptide 1601.11], the IC50 at DRB5*0101 is greater than 20 µM; at DRB1*1302 it was greater than 20000 nM; on DRB1*0405, 14.7 µM; at DR1 (DRB1*0101), 505 nM; against DRB1*0802 it was greater than 20 µM; at DR7 (DRB1*0701), 91 nM. Further, the IC50 was greater than 20 µM against DRB3*0101; greater than 20000 nM at DRB4*0101; greater than 20 µM against DRB1*0301; greater than 20 µM on DRB1*1501; 2490 nM against DRB1*0901; greater than 20 µM at DRB1*1101.
For the compound `CC[C@H](C)[C@H](NC(=O)[C@@H](NC(=O)[C@@H]1CCCN1C(=O)[C@@H](NC(=O)[C@@H](NC(=O)[C@H](CC(N)=O)NC(=O)CNC(=O)[C@H](CO)NC(=O)[C@H](CS)NC(=O)[C@H](CC(C)C)NC(=O)[C@H](CCCCN)NC(=O)[C@H](CCCNC(=N)N)NC(=O)[C@H](CCCNC(=N)N)NC(=O)[C@@H](N)CCCCN)[C@@H](C)O)[C@@H](C)O)[C@@H](C)CC)C(=O)N[C@@H](Cc1c[nH]cn1)C(=O)O` [Peptide 1601.16], the half-maximal inhibitory concentration (IC50) on DRB5*0101 was 4.98 µM; at DRB1*1302, 7.6 nM; on DR4w4 (DRB1*0401), 311 nM; at DRB1*0802, 4.74 µM; at DRB3*0101 it was greater than 20 µM; at DRB4*0101 it was greater than 20000 nM. The 50% inhibitory concentration (IC50) against DRB1*0301 was 5.94 µM; against DRB1*1501 it was 9.33 µM; against DRB1*0901 it was 61 nM; on DRB1*1101 it was greater than 20 µM.
For `CC[C@H](C)[C@H](NC(=O)[C@@H](NC(=O)[C@@H]1CCCN1C(=O)[C@@H](NC(=O)[C@@H](NC(=O)[C@H](CC(N)=O)NC(=O)CNC(=O)[C@H](CO)NC(=O)[C@H](CS)NC(=O)[C@@H](NC(=O)[C@H](CCCCN)NC(=O)[C@@H](N)CCCNC(=N)N)C(C)C)[C@@H](C)O)[C@@H](C)O)[C@@H](C)CC)C(=O)N[C@@H](Cc1c[nH]cn1)C(=O)N[C@@H](CC(C)C)C(=O)N[C@@H](CCCCN)C(=O)O` [Peptide 1601.43], the IC50 on DRB5*0101 was 18 µM; on DRB1*1302 it was 11 nM; on DRB1*0405 it was 9.21 µM; at DR1 (DRB1*0101) it was 1310 nM; at DRB1*0802, 8.06 µM; on DRB3*0101, greater than 20 µM. Moreover, the IC50 is 2100 nM against DRB4*0101; greater than 20 µM at DRB1*0301; 8.05 µM at DRB1*1501; 1120 nM on DRB1*0901; greater than 20 µM at DRB1*1101.
With DFLNTVKIPNTVSVS [Peptide 1601.28], the IC50 at DRB5*0101 was greater than 20 µM; at DRB1*1302, 131 nM; against DR4w4 (DRB1*0401), 500 nM; on DRB1*0405, 11.8 µM; on DR1 (DRB1*0101) it was 777 nM; against DRB1*0802, 2.09 µM. Further, the IC50 was 469 nM at DR7 (DRB1*0701); greater than 20 µM against DRB3*0101; greater than 20 µM against DRB1*0301; 2.19 µM on DRB1*1501; 373 nM against DRB1*0901; 0.277 µM at DRB1*1101.
On to NCNSNTTPIVHLKGD [Peptide 1601.08], for which the IC50 is greater than 20 µM on DRB5*0101; 3110 nM against DR4w4 (DRB1*0401); greater than 20 µM at DRB1*0405; 11500 nM against DR1 (DRB1*0101); greater than 20 µM on DRB1*0802; greater than 20 µM at DRB3*0101. The IC50 against DRB4*0101 is 2640 nM; against DRB1*0301 it was greater than 20 µM; at DRB1*1501, greater than 20 µM; at DRB1*0901 it was 3140 nM; at DRB1*1101, greater than 20 µM.
On to QMMLETLNNTEYKNE [Peptide 1601.22], for which the concentration for half-maximal inhibition (IC50) was greater than 20 µM at DRB5*0101; 14700 nM at DRB1*1302; 0.063 µM on DRB1*0405; greater than 20000 nM against DR1 (DRB1*0101); greater than 20 µM at DRB1*0802; greater than 20000 nM at DR7 (DRB1*0701). Also, the IC50 against DRB3*0101 was greater than 20 µM; on DRB4*0101, 555 nM; against DRB1*0301, 9.64 µM; at DRB1*1501, greater than 20 µM; against DRB1*0901, greater than 20000 nM; at DRB1*1101 it was greater than 20 µM.
As for RNTFLDVVTIPNSVQ [Peptide 1601.39], the IC50 is greater than 20 µM at DRB5*0101; 0.326 µM on DRB1*0405; 555 nM on DR1 (DRB1*0101); 0.776 µM against DRB1*0802; 270 nM against DR7 (DRB1*0701); 12 µM on DRB3*0101. For the same compound, the concentration for half-maximal inhibition (IC50) on DRB1*0301 was 6.86 µM; on DRB1*1501, 17 µM; on DRB1*0901, 5870 nM; on DRB1*1101, 0.371 µM.
On to SDEISFAGIVTKLPT [Peptide 1601.45], for which the 50% inhibitory concentration (IC50) against DR4w4 (DRB1*0401) is 8790 nM; against DRB1*0405, 2.35 µM; against DR1 (DRB1*0101), 513 nM; at DRB1*0802 it was 10.7 µM; against DR7 (DRB1*0701), 901 nM; against DRB3*0101 it was greater than 20 µM. The IC50 is 1.66 µM against DRB1*0301, 0.791 µM against DRB1*1501, 1280 nM at DRB1*0901 and 12.2 µM at DRB1*1101.
Regarding STSDDTVSATQIVRQ [Peptide 1601.31], the IC50 on DRB5*0101 was greater than 20 µM; against DRB1*1302, greater than 20000 nM; against DR4w4 (DRB1*0401), 558 nM; against DRB1*0405, greater than 20 µM; on DR1 (DRB1*0101), 18100 nM; on DRB1*0802 it was greater than 20 µM. Besides, the 50% inhibitory concentration (IC50) is 5210 nM at DR7 (DRB1*0701); greater than 20 µM at DRB3*0101; 3.74 µM on DRB1*0301; greater than 20 µM at DRB1*1501; greater than 20000 nM against DRB1*0901; greater than 20 µM at DRB1*1101.
STWHWTGCNKNTGIL [Peptide 1601.38]: the 50% inhibitory concentration (IC50) at DRB5*0101 is 16.5 µM; at DRB1*1302 it was 487 nM; against DR4w4 (DRB1*0401), greater than 20000 nM; on DR1 (DRB1*0101), greater than 20000 nM; on DRB1*0802 it was 11.7 µM; against DRB3*0101, greater than 20 µM. For the same compound, the 50% inhibitory concentration (IC50) was greater than 20000 nM on DRB4*0101; greater than 20 µM on DRB1*0301; greater than 20 µM at DRB1*1501; greater than 20000 nM at DRB1*0901; 0.662 µM at DRB1*1101.
For YENDSTDLRDHIDYW [Peptide 1601.01], the 50% inhibitory concentration (IC50) is greater than 20 µM at DRB5*0101; greater than 20000 nM against DRB1*1302; greater than 20000 nM on DR4w4 (DRB1*0401); greater than 20 µM against DRB1*0405; greater than 20000 nM on DR1 (DRB1*0101); greater than 20 µM on DRB1*0802. The 50% inhibitory concentration (IC50) was greater than 20000 nM on DR7 (DRB1*0701); 8.55 µM against DRB3*0101; 15.8 µM against DRB1*0301; greater than 20 µM at DRB1*1501; greater than 20000 nM at DRB1*0901; greater than 20 µM at DRB1*1101.
